In PubChem BioAssay AID624129 (Sanford-Burnham Center for Chemical Genomics, 2012):
The source made the active and inactive calls. How the calls were made is not given here.

Target: C-X-C chemokine receptor type 6 (Homo sapiens) (UniProt O00574)
Assay: CXCR6 receptor antagonists, dose response, cell-based, beta-arrestin, DiscoveRx, APJ panel, uHTS hits (AID 624129)
Settings: CXCR6 beta-arrestin (DiscoveRx) antagonist cell assay; for outcome: CXCR6, dose range 1; for inhibition: CXCR6, run 2, dose range 1, at 79 µM (top of the series)
[1] = CXCR6, dose range 1, mean IC50 across replicates

Sequence of C-X-C chemokine receptor type 6 (Homo sapiens) (O00574 whole entry, looked up): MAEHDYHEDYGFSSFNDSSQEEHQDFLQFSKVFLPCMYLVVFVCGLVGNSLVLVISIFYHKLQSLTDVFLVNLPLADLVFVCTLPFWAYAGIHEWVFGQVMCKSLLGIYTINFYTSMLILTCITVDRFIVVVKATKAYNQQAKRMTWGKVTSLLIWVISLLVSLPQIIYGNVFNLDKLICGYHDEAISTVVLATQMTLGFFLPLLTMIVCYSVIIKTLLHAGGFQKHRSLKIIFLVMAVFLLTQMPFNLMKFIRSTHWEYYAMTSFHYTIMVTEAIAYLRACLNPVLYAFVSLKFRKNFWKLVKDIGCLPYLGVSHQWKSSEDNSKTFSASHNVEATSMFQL

Compound | outcome | IC50 [1] | IC50 (CXCR6, run 1, dose range 2) | inhibition | IC50 (CXCR6, run 2, dose range 2)
O=C(Nc1ccccc1)c1ccc(Nc2c([N+](=O)[O-])cc([N+](=O)[O-])c3ccccc23)cc1 | inactive | 44.4 µM | 65.1 µM | 98.6% | 23.6 µM
C=CC[n+]1c(-c2ccc(Cl)cc2Cl)csc1Nc1c(C)n(C)n(-c2ccccc2)c1=O | inactive | 40 µM | 29.2 µM | 101% | 50.8 µM
CN(c1ccccc1)c1ccc(/C=C/[N+](=O)[O-])cc1 | inactive | 11.4 µM | 10.3 µM | 114% | 12.5 µM
Cc1cc(O)c(-c2cc(O)c(C)cc2O)cc1O | inactive | 14 µM | 13.6 µM | 114% | 14.4 µM
O=C1C=CC(=O)N1CCCCCCCCCCN1C(=O)C=CC1=O | inactive | 16.5 µM | 15.1 µM | 111% | 18 µM
O=C(N/N=C/c1ccc([N+](=O)[O-])o1)c1sc2ccccc2c1Cl | inactive | 19.5 µM | 19.2 µM | 97% | 19.9 µM
O=C(C(=Cc1ccc(F)cc1)C(=O)c1ccccc1)c1ccccc1 | inactive | 13.7 µM | 11.8 µM | 112% | 15.5 µM
COc1ccc(C(=O)/C=C/Sc2nc3ccccc3o2)cc1 | inactive | 44.8 µM | 21.7 µM | 61.3% | 67.8 µM
COc1ccc2nc(-n3c(O)c(C4=c5ccccc5=NC4=O)[nH]c3=S)sc2c1 | inactive | 30.4 µM | 26.5 µM | 109% | 34.3 µM
N#CC(C#N)=C1C=CC=CN1/C(=C\c1ccco1)C(=O)c1ccc(-c2ccccc2)cc1 | inactive | 14.1 µM | 12.2 µM | 103% | 16 µM
O=C(Nc1ccccc1)c1nnsc1S(=O)c1ccc(Cl)cc1 (stereo not given) | inactive | 11.5 µM | 11.9 µM | 111% | 11.2 µM
Cc1nnc(Sc2cc(NCCO)c([N+](=O)[O-])c3nonc23)s1 | inactive | 12.1 µM | 9.44 µM | 114% | 14.7 µM
Cc1cccc(CS(=O)(=O)c2ncc(Cl)c(C(=O)NCc3ccccc3)n2)c1 | inactive | 13.1 µM | 11.5 µM | 112% | 14.7 µM
COc1cc(/C=C/c2ccc3cccc(OC)c3n2)c(OC(C)=O)c([N+](=O)[O-])c1 | inactive | 28.4 µM | 35 µM | 78.8% | 21.8 µM
CC1=C(C)CC2C(C1)C(=O)c1ccc(Br)cc1S2(=O)=O (stereo not given) | inactive | 30.5 µM | 37.3 µM | 50.8% | 23.7 µM
CCOc1cc(/C=C2\C(=O)N(c3cccc(C(F)(F)F)c3)C(=O)c3ccccc32)ccc1O | inactive | 49.2 µM | 49.2 µM | 81% | > 79 µM
NC(=O)c1ccccc1NCC(=O)c1ccc(Cl)cc1 | active | 5.58 µM | 5.58 µM | 36.4% | > 79 µM
Nc1nc(N)c2c(ccc3c2ccn3Cc2cccc([N+](=O)[O-])c2)n1 | inactive | 16.9 µM | 15.8 µM | 110% | 18 µM
Cn1cnc([N+](=O)[O-])c1S(=O)(=O)c1ccc(Cl)cc1 | inactive | 13.9 µM | 14.5 µM | 110% | 13.3 µM
O=[N+]([O-])c1ccc(N/N=C/c2sc(N3CCOCC3)nc2-c2ccccc2)c(S(=O)(=O)Nc2ccc(Cl)cc2)c1 | inactive | 55.1 µM | 72.8 µM | 99.6% | 37.3 µM
Cn1cnc([N+](=O)[O-])c1S(=O)(=O)Oc1ccccc1 | inactive | 19.4 µM | 16.5 µM | 111% | 22.3 µM
O=C(Nc1ccccc1Oc1ccccc1)[C@@H]1O[C@H](CO)[C@H](O)[C@H](O)[C@H]1O | inactive | 14.2 µM | 12.4 µM | 99.6% | 15.9 µM
Cc1cc2nc(N3C(=O)CNC3=S)sc2cc1C | inactive | 11.6 µM | 8.25 µM | 89.4% | 14.9 µM

Continued by falling IC50 [1], values first:

outcome | IC50 [1] | IC50 (CXCR6, run 1, dose range 2) | inhibition | IC50 (CXCR6, run 2, dose range 2) | Compound
inactive | 57.9 µM | 77.4 µM | 84% | 38.4 µM | CC1=CC(C)(C)N2C(=O)C(=Nc3ccc(O)cc3)c3cccc1c32
inactive | 51 µM | 65.1 µM | 98.3% | 37 µM | Nc1cccc2c1C(=O)N(C(=O)/C=C/c1cccc(F)c1)C2=O
inactive | 28.7 µM | 24.6 µM | 86.6% | 32.8 µM | COc1cc(C2C(C#N)=C(N)Oc3n[nH]c(-c4cccnc4)c32)cc(Br)c1O (stereo not given)
inactive | 28.5 µM | 31.4 µM | 89.3% | 25.7 µM | Cc1ccc(NC(=O)c2ccc(Nc3c([N+](=O)[O-])cc([N+](=O)[O-])cc3[N+](=O)[O-])cc2)cc1
inactive | 26 µM | 8.84 µM | 68.8% | 43.2 µM | O=C(NC(=S)N(CCc1ccccc1)CCc1ccccc1)c1ccco1
inactive | 24.3 µM | 24.3 µM | 101% | 24.2 µM | O=C1c2cccc3c([N+](=O)[O-])ccc(c23)C(=O)N1c1ccccn1
inactive | 21.9 µM | 18.3 µM | 77.5% | 25.6 µM | Cn1c(=O)[nH]c(=O)c2c1nc(Sc1nc3ccccc3s1)n2Cc1ccccc1
inactive | 21.5 µM | 19.5 µM | 108% | 23.5 µM | O=C1C=CC2C3C(=O)N(c4ccccc4)C(=O)C3C1N2Cc1ccccc1 (stereo not given)
inactive | 21.4 µM | 20.1 µM | 76% | 22.7 µM | CC(O)CN(CC(C)O)c1ccc2c(c1)Cc1cc([N+](=O)[O-])ccc1-2 (stereo not given)
inactive | 20.5 µM | 17.2 µM | 84.7% | 23.7 µM | CCn1nccc1C(=O)Nc1nc2ccccc2n1CCN1CCCCC1
inactive | 19.9 µM | 20.3 µM | 109% | 19.5 µM | COc1ccc(/C=C(/C(=O)c2cccs2)N2C=CC=CC2=C(C#N)C#N)cc1
inactive | 19.1 µM | 18 µM | 108% | 20.2 µM | CC1(C)Cc2ccccc2C(NNC(=O)c2ccccn2)=N1
inactive | 19 µM | 19.3 µM | 97.5% | 18.8 µM | COc1ccc(-n2nnnc2S(=O)(=O)CC(=O)N2CCCCC2)cc1
inactive | 17.5 µM | 18.5 µM | 93.1% | 16.4 µM | CN(C)/C=C/c1oc2ccc(O)cc2c1[N+](=O)[O-]
inactive | 17.1 µM | 15.4 µM | 109% | 18.9 µM | Cc1ccccc1CS(=O)(=O)c1ncc(Cl)c(C(=O)Nc2ccc(F)cc2)n1
inactive | 16.8 µM | 16.8 µM | 27.4% | > 79 µM | O=C(COC(=O)C1CCN(S(=O)(=O)c2cccs2)CC1)c1cc2ccccc2o1
inactive | 15.2 µM | 17.1 µM | 69.3% | 13.3 µM | C=C1CCN([C@@H](Cc2ccccc2)C(=O)NCCC(C)C)S(=O)(=O)c2ccccc21
inactive | 15 µM | 16.4 µM | 83.5% | 13.7 µM | Cc1ccccc1NC(=S)NNc1ncc(C(F)(F)F)cc1Cl
inactive | 14.3 µM | 12.5 µM | 67.6% | 16.1 µM | COc1cccc(-c2nnc(NC(=O)c3ccc(Cl)s3)o2)c1
inactive | 14.1 µM | 13.6 µM | 112% | 14.6 µM | COC(=O)c1ccc(/C=C(\C#N)C(=O)NC(C)c2ccccc2)cc1 (stereo not given)
inactive | 14.1 µM | 11.7 µM | 93.3% | 16.4 µM | NC(=S)NN=C1c2cc(Cl)ccc2-c2c1cc(Cl)cc2[N+](=O)[O-]
inactive | 13.7 µM | 10.8 µM | 91.8% | 16.5 µM | Cc1ccc(O)c(C(=O)CC(=O)c2ccc(Cl)cc2)c1
inactive | 13.5 µM | 10.4 µM | 105% | 16.6 µM | Cc1ccc(NC(=S)NNc2ncc(C(F)(F)F)cc2Cl)cc1
inactive | 12.1 µM | 12.4 µM | 112% | 11.9 µM | Cn1cnc([N+](=O)[O-])c1S(=O)(=O)c1cccc(Cl)c1
inactive | 11.8 µM | 12.4 µM | 39.5% | 11.1 µM | C/C(=N\NC(=S)NCCc1ccccc1)c1ccc(Cl)cc1Cl
inactive | 11.4 µM | 10.5 µM | 79.2% | 12.3 µM | CCCCC(=O)NC(=S)Nc1ccccc1C(=O)Nc1ccccc1
